Results as given in patent US20130053323A1, “METHODS AND USE RELATED TO HUMANIN AND HUMANIN-LIKE PEPTIDES” (priority 2009, published 2013).
“Also recorded” adds a separate entry of the source.

Key:
IL-6 = IL-6 ELISA in culture medium of LPS-treated ATDC5 chondrocytes; assay type: cell-based, mice; conditions: LPS 10 μg/ml 24 hrs; combined Dexa and HNG (10 nM)
Protocol: Mice chondrocyte cell line ATDC5 (1×10^6), was cultured in DMEM/Ham's F12 (Invitrogen) supplemented with 5% FCS, 10 μg/ml human transferrin and 3×10^−8 M (30 nM) sodium selenite until confluent (day 6), as previously reported (Owen, Miner et al. 2007). Thereafter, differentiation was induced by the addition of insulin (10 μg/ml; Sigma) and ascorbic acid (20 μg/ml) to the maintenance medium (differentiation medium). Incubation was at 37° C. in a humidified atmosphere of 95% air/5% CO2. The culture medium was changed every second day. On day 6, lipopolysacharide (LPS) 10 μg/ml […] Dexa (1 μM) and HNG (10 nM, S14G) were added in DMEM/Ham's F12 only and cells were incubated further 24 hrs. Next day, the cell culture medium was collected and analyzed for Intraleukin-6 (IL-6) cytokine levels by using commercially available ELISA kit (R&D Systems, Minneapolis, Minn.) according to instructions provided from manufacturer.
FIG. 2C. […] Therefore, ATDC5 chondrocytes (mice) were cultured and treated with lipopolysacharide (LPS, 10 μg/ml) for 24 hrs to induce inflammation.

growth plate cartilage = assay: Growth plate histology, resting and proliferating chondrocyte zone (R+P); assay type: in vivo, mice; conditions: four weeks
Protocol: Four weeks old mice (female, FVB) were injected with Dexa dissolved in saline ([…]) subcutaneously in the neck every day for four week. Whereas, HNG (S14G) dissolved in saline (1 μg/mice) was injected intra-peritoneally, 45 minutes prior to the Dexa injection for four weeks, for details see materials and methods. The femur and tibia bones were dissected out and fixed in 4% formalin for 24 hrs, followed by decalcification in 10% EDTA and embedded in paraffin blocks. Five-micrometer-thick sections were prepared from these paraffin blocks. The sections were prepared from the tibial growth plate and stained with Van Gieson. Digital images of stained sections were collected using a Nikon Eclipse E800 microscope (Nikon Corp., Tokyo, Japan) equipped with an Olympus DP70 digital camera (Olympus Sverige AB, Solna, Sweden).
Since a positive effect of HNG (S14G) on bone growth was identified, different zones of chondrocytes were analyzed (resting, proliferative and hypertrophic) in growth plate cartilage, to identify visible changes in these zones. […] These micropgraphas also explain the longitudinal bone growth promoting effects by HNG (S14G) alone or in combination with Dexa.

[1] = test system: neuroblastoma (SK-N-BE(2)) tumor xenografts; assay: Doubling time of tumors in neuroblastoma xenografts; assay type: in vivo, human; conditions: combination bortezomib 0.8 mg/kg i.v. + HNG 1 μg/mouse/injection i.p.; p<0.05 vs vehicle
[2] = test system: fetal rat metatarsal bones; assay: Longitudinal growth of cultured fetal rat metatarsal bones; assay type: cell-based
Protocol: The three middle metatarsal bone rudiments were dissected out from the paws of 20-day-old embryos (E20) (De Luca, Barnes et al. 2001). After dissection, bones were transferred to 24-well plates, one bone per well and cultured in 0.5 ml phenol-red MEM medium supplemented with 0.2% endotoxin-free fraction BSA, […] β-glycerophosphate, 0.05 mg/ml ascorbic acid and 100 μg/ml penicillin/streptomycin at 37° C. under 5% CO2 in humidified atmosphere. Medium was changed every 2-3 days. Images were captured at days 0, 2, 5, 7, 9 and 12 of culture, using a Hamamatsu C4742-95 digital camera mounted on a Nikon SMZ-U microscope. The Image-Pro plus™ (Media Cybernetics, USA) software was used to measure longitudinal growth. Metatarsal bone growth is expressed as a percentage of the length at the day of dissection (regarded as day 0). Treatment with CT (bortezomib), dexamethasone and/or HNG (S14G) was started 2-4 hours after dissection. All isolated bones were pooled and then randomly divided into the different treatment groups (4 to 6 bones per group). Each experiment was repeated at least 3 times.
The data shown in FIG. 2A indicates novel growth promoting/protective effects of humanin analog HNG (S14G) on longitudinal bone growth in cultured fetal rat metatarsal bones. […] Briefly, fetal rat metatarsal bones were pre-treated with different concentrations (mentioned in the figure) of HNG (S14G), 30 min prior to addition of Dexa. […] (n=4-6 bones/group)
CT (bortezomib) is a cytotoxic drug known to cause critical alterations in cells/tissues and disturb the cellular homeostasis. To test the effect of CT (bortezomib) on chondocytes and longitudinal bone growth, the established in vitro model of fetal rat metatarsal bones was used. These bones were collected as described in material and methods, cultured and treated with different concentrations of CT (bortezomib) under sterile conditions for up to 12 days. […] Apoptosis was analyzed in whole growth plate sections of 12-day cultured rat metatarsal bones (perichondrium excluded) by applying the TUNEL technique to detect DNA fragmentation.
In an attempt to block and prevent the negative effects on growth after CT (bortezomib)-treatment, recently discovered humanin analog HNG (S14G) was tested in vitro in fetal rat metatarsal bones.

## S14G-HN (MAPRGFSCLLLLTGEIDLPVKRRA) [HNG (S14G)]
IL-6
  effect on the anti-inflammatory effect of Dexa (IL-6 levels): did not alter the anti-inflammatory effects of Dexa
Growth plate cartilage; HNG (S14G)/Dexa, vs Dexa only
  size of resting and proliferating chondrocyte zone (R+P): larger than in the Dexa only treated group
Growth plate cartilage; HNG alone 1 μg/mice, vs all other groups
  size of resting and proliferating chondrocyte zone (R+P): appears to be larger
[1]
  tumor doubling time: significant reduction in tumor doubling time
[2]; HNG alone, 100 nM, day 12, vs control
  bone growth by itself: improved bone growth by itself; also recorded: trend to promote bone growth on its own
[2]; HNG in combination with 25 nM bortezomib, p<0.001
  rescue of the growth of bones: up to 50%
[2]; HNG with bortezomib 50 nM and above
  rescue of growth impairment: not able to rescue the growth impairment
[2]; different doses of HNG added 30 min prior to Dexa 1 μM
  rescue from Dexa-induced growth retardation: significantly rescued the bones from Dexa-induced growth retardation
